Measured values published in patent US12447141B2, “Liquid tasimelteon formulations and methods of use thereof” (Vanda Pharmaceuticals Inc., priority 2019, dated 2025).
Values after ≈ are worked out from the molar mass of the structure shown.

What was measured:
[1] = Solubility and pH of saturated solution; type: physicochemical; details: water
[2] = known in the art, cited from earlier work
[3] = Apparent clearance in the pediatric study; type: in vivo, pediatric patients; details: children with body mass greater than 28 kg
Method: (§1) One common symptom of SMS is a chronically disrupted sleep pattern, which is found at all ages. In a study to determine the efficacy of tasimelteon in the treatment of disorders, including SMS, oral (20 mg capsule or 4 mg/mL suspension) and intravenous (0.4 mg/mL) formulations were administered once per day before bedtime to pediatric patients 3-17 years old.

[4] = test system: Smith-Magenis Syndrome (SMS); test: Study of efficacy of tasimelteon in disorders including SMS, once daily before bedtime; type: in vivo, pediatric patients
Method: as §1
Treatment efficacy was assessed by improvements in nighttime sleep (i.e., reduced nighttime activity interrupting the sleep period, improved sleep efficiency, reduced variability in sleep onset, reduced variability in morning awakenings, and/or improved sleep quality), reduced daytime sleepiness, reduced behavioral problems (i.e., reduced aggressive behavior, reduced temper tantrums, reduced hyperactivity, and/or reduced attention deficits).

[5] = Chemical / storage stability of tasimelteon and its suspensions; type: physicochemical; details: formation of three degradation products
Method: Ascorbic acid preferentially undergoes oxidation, thereby preventing oxidation of tasimelteon, but also imparts a yellow color to the suspension on storage, especially when stored at 40° C./75% RH for >3 months, which is the accelerated storage condition for products stored at room temperature (6 months of satisfactory stability is necessary at 40° C./75% RH in order to justify long-term storage at room temperature/25° C./60% RH). Because of the color change from white/off-white to yellow after 3 months storage at 40° C./75% RH, it is necessary to store the suspension at 5° C., for which the accelerated storage condition is 25° C./60% RH and up to 6 months of satisfactory stability data at this storage condition are available (i.e., color change is from white/off-white to slightly yellow).
Short-term stability studies can be undertaken under storage conditions at (1) 5±3° C., (2) 25±2° C. (at 60±5% relative humidity), and 40±2° C. (at 75±5% relative humidity) for one to three months. Under such conditions, total impurities as determined by HPLC for pharmaceutically acceptable compositions are, for example, not more than 2.0 percent by weight or not more than 0.5 percent by weight with respect to known impurities, and not more than 0.2 percent by weight with respect to unspecified impurities.

solubility [1] [mg/mL] | apparent clearance [3] | oxidative degradation [5] | Structure (SMILES) | solubility in organic solvents ([2]; 95% ethanol, methanol, acetonitrile, ethyl acetate, isopropanol, polyethylene glycols (PEG-300 and PEG-400)) | effect of pH on aqueous solubility [2] | native pH of a saturated solution in water ([2]; saturated solution in water) | solubility in water ([2]; water) | consistently effective dose ([4]; patients with body mass greater than 28 kg) [mg] | consistently effective dose ([4]; patients with body mass of 28 kg or less) [mg/kg]
~200 (≈ 1100 mM) |  |  | OC[C@@H](O)[C@@H](O)[C@H](O)[C@H](O)CO [mannitol] |  |  |  |  |  | 
~1 (≈ 4.08 mM) | constant and similar to that of adults | susceptible to oxidative degradation | CCC(=O)NC[C@@H]1C[C@H]1c1cccc2c1CCO2 [tasimelteon, trans-N-[[2-(2,3-dihydrobenzofuran-4-yl)cycloprop-1-yl]methyl]propanamide] | highly soluble | substantially unaffected by pH | 8.5 | poorly soluble | 20 | 0.7
